Source: patent publication US9006139B2, “Active compound combinations” (Bayer Intellectual Property GmbH, priority 2009, dated 2015)
Like-named read-outs stand apart in the source and are kept apart here.

Experiments:
Assay type in all cases: in vivo
Pyrenophora teres = test: Pyrenophora teres-test (barley)/preventive
Description: (§1) Solvent: 49 parts by weight of n,n-dimethylacetamid
(§2) Emulsifier: 1 part by weight of alkylaryl polyglycol ether
(§3) To produce a suitable preparation of active compound, 1 part by weight of active compound or active compound combination is mixed with the stated amounts of solvent and emulsifier, and the concentrate is diluted with water to the desired concentration. To test for preventive activity, young plants are sprayed with the preparation of active compound or active compound combination at the stated rate of application. After the spray coating has been dried, the plants are sprayed with a spore suspension of Pyrenophora teres. The plants remain for 48 hours in an incubation cabinet at approximately 20° C. and a relative atmospheric humidity of approximately 100%. The plants are placed in the greenhouse at a temperature of approximately 20° C. and a relative atmospheric humidity of approximately 80%. The test is evaluated 8 days after the inoculation. 0% means an efficacy which corresponds to that of the untreated control, while an efficacy of 100% means that no disease is observed.

Alternaria solani = test: Alternaria test (tomatoes)/protective; conditions: Alternaria solani, 72 h, Table E, read-out: Efficacy in % found; for pest or weed control at 50 ppm: 50 ppm a.i.
Outline: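 Protective test: young tomato plants were sprayed with compound in an acetone/dimethylacetamide emulsifier formulation diluted with water. After drying, plants were inoculated with Alternaria solani spores and kept at ~20 °C and 100% relative humidity. Scored 3 days post-inoculation as % efficacy, where 0% equals untreated control and 100% means no disease.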

Leptosphaeria nodorum = Leptosphaeria nodorum test (wheat)/preventive; conditions: Parastagonospora nodorum, 192 h, Table K, read-out: Efficacy in % found
Description: as §1, §2
as §3, with “suspension of Leptosphaeria nodorum. The plants” for “suspension of Pyrenophora teres. The plants”, “of approximately 22° C. and” for “of approximately 20° C. and”

Septoria tritici = test: Septoria tritici-test (wheat)/preventive; conditions: Table H
Description: as §1, §2
as §3, with “suspension of Septoria tritici. The plants” for “suspension of Pyrenophora teres. The plants”, “of approximately 100% and afterwards for 60 hours at approximately 15° C. in a translucent incubation cabinet at a relative atmospheric humidity of approximately 100%. The” for “of approximately 100%. The”, “of approximately 15° C. and” for “of approximately 20° C. and”, “is evaluated 21 days after” for “is evaluated 8 days after”

Sphaerotheca fuliginea = test: Sphaerotheca test (cucumbers)/protective; conditions: Podosphaera fuliginea, 168 h, Table C, read-out: Efficacy in % found; for pest or weed control at 50 ppm: 50 ppm a.i.; for pest or weed control at 200 ppm: 200 ppm a.i.; for pest or weed control at 100 ppm: 100 ppm a.i.
Outline: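 Young cucumber plants sprayed protectively with compound in acetone/dimethylacetamide with emulsifier, water-diluted, at the stated rate. After drying, plants inoculated with Sphaerotheca fuliginea spores and kept at ~23° C and ~70% RH. Efficacy scored at 7 days: 0% = untreated control, 100% = no disease.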

[1] = system: Blumeria graminis fsp. tritici; test: Blumeria test (wheat)/preventive; conditions: Table G; 500 ppm a.i.
Description: as §1, §2
To produce a suitable preparation of active compound, 1 part by weight of active compound or active compound combination is mixed with the stated amounts of solvent and emulsifier, and the concentrate is diluted with water to the desired concentration. To test for preventive activity, young plants are sprayed with the preparation of active compound or active compound combination at the stated rate of application. After the spray coating has been dried, the plants are dusted with spores of Blumeria graminis fsp. tritici. The plants are placed in the greenhouse at a temperature of approximately 18° C. and a relative atmospheric humidity of approximately 80% to promote the development of mildew pustules. The test is evaluated 7 days after the inoculation. 0% means an efficacy which corresponds to that of the untreated control, while an efficacy of 100% means that no disease is observed.

Cn1c(=O)c2sc3c(=O)n(C)c(=O)c3sc2c1=O [(I-1), 2,6-dimethyl-1H,5H-[1,4]dithiino[2,3-c:5,6-c′]dipyrrole-1,3,5,7(2H,6H)-tetrone]
Efficacy in % found (Pyrenophora teres; Table I1, 500 ppm a.i.): 10% | Efficacy in % found (Pyrenophora teres; Table I1, 1000 ppm a.i.): 44% | Efficacy in % found (Pyrenophora teres; Table I2, 1000 ppm a.i.): 22% | pest or weed control at 12.5 ppm (Alternaria solani; test 1, 12.5 ppm a.i.): 0% | pest or weed control at 50 ppm (Alternaria solani; test 1): 45% | pest or weed control at 50 ppm (Alternaria solani; test 2): 50% | pest or weed control at 500 ppm (Leptosphaeria nodorum; 500 ppm a.i.): 13% | pest or weed control at 1000 ppm (Leptosphaeria nodorum; 1000 ppm a.i.): 11% | Efficacy in % found (Septoria tritici; 500 ppm a.i.): 30% | Efficacy in % found (Septoria tritici; 1000 ppm a.i.): 50% | pest or weed control at 50 ppm (Sphaerotheca fuliginea; test 1): 0% | pest or weed control at 200 ppm (Sphaerotheca fuliginea; test 1): 30% | pest or weed control at 50 ppm (Sphaerotheca fuliginea; test 2): 38% | pest or weed control at 200 ppm (Sphaerotheca fuliginea; test 2): 65% | pest or weed control at 50 ppm (Sphaerotheca fuliginea; test 3): 20% | pest or weed control at 100 ppm (Sphaerotheca fuliginea; test 3): 30% | pest or weed control at 100 ppm (Sphaerotheca fuliginea; test 4): 19% | Efficacy in % found [1]: 75%
